Test [1] can be described thus: Inhibition of hypoxia-induced HIF-1 transcriptional activity by luciferase reporter assay. A general note: A reporter such as luciferase makes a cellular process visible.
Test [2] deals with Hypoxia-inducible factor 1-alpha (Homo sapiens) (UniProt Q16665). The test can be described thus: Inhibition of hypoxia-induced HIF1alpha protein reduction in human Hep3B cells by Western blot analysis. Particulars: Hep 3B2. It is filed as cell-based. Background: A western blot detects proteins with antibodies after separation by electrophoresis.

Molecules are shown by their SMILES.

Hypoxia-inducible factor 1-alpha (Homo sapiens), sequence (Q16665 whole entry, looked up): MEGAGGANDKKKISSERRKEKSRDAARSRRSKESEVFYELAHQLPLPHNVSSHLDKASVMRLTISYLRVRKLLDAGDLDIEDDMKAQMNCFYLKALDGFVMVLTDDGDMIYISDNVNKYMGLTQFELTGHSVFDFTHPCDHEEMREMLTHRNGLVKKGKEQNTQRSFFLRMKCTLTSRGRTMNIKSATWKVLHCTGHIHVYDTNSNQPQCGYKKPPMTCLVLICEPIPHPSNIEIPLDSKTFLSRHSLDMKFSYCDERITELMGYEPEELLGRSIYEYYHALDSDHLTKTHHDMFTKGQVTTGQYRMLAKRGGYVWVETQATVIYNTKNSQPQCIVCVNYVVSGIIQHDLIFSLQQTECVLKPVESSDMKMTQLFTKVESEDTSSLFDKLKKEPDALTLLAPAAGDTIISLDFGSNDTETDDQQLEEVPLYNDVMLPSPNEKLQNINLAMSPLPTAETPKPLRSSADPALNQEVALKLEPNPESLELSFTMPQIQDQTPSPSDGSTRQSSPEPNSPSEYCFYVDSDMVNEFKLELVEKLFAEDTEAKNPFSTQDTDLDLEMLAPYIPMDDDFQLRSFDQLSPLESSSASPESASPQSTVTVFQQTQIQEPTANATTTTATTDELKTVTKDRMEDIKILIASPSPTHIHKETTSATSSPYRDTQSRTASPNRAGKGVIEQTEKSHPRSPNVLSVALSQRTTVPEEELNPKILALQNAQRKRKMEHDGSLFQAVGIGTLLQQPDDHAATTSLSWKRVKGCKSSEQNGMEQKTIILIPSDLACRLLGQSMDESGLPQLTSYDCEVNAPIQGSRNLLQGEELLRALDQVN

With `OCc1ccc(-c2[nH]nc3ccccc23)o1`, the IC50 (as a rule, the concentration at which inhibition is half-maximal) in test [1] amounted to 5 µM. This lies in the single-digit micromolar range.
As to `OCC1CN=C(c2nn(Cc3ccccc3)c3ccccc23)O1` (stereo not drawn), the IC50 in test [1] is more than 30 µM.
The same measure, in the same setting: then `CC(C)(C)C(=O)OCc1ccc(-c2nn(Cc3ccccc3)c3ccccc23)o1`, with 0.89 µM.
On the same count and under the same terms, then `NC(=O)c1ccc(-c2nn(Cc3ccccc3)c3ccccc23)o1`, with 11.9 µM.
Same read-out and setting: in the case of `CNCc1ccc(-c2nn(C)c3ccccc23)o1` it was 7.7 µM; in that of `[N-]=[N+]=NCc1ccc(-c2nn(Cc3ccccc3)c3ccccc23)o1`, more than 30 µM; in that of `Cn1nc(-c2ncc(CO)o2)c2ccccc21`, more than 30 µM.
As to `Cn1nc(-c2ccc(CN3CCOCC3)o2)c2ccccc21`, 1.9 µM corresponded to half-maximal inhibition in test [1] (IC50).
The same measure, in the same setting: in the case of `Cn1nc(-c2ccc(CN=[N+]=[N-])o2)c2ccccc21` it was more than 30 µM; in that of `OCc1ccc(-c2nn(Cc3ccccc3)c3ccccc23)o1`, 1.2 µM.
Turning to `CC(C)C(=O)OCc1ccc(-c2nn(Cc3ccccc3)c3ccccc23)o1`, the inhibition result in test [2] is “Dose-dependent effect”. For the same compound, the midpoint of inhibition in test [1], the IC50, lay at 0.74 µM.
For `Cn1nc(-c2ccc(CN)o2)c2ccccc21`, in test [1], the IC50 is more than 30 µM.
On the same count and under the same terms, then `Cn1nc(-c2cc(CO)no2)c2ccccc21`, with more than 30 µM.
`Cn1nc(-c2ccc(CN3CCCCC3)o2)c2ccccc21` had an IC50 in test [1] of 2 µM.
On the same count and under the same terms, in the case of `OCc1cnc(-c2nn(Cc3ccccc3)c3ccccc23)s1` it was more than 30 µM.
As to `Cn1nc(-c2ccc(CO)o2)c2ccccc21`, half-maximal inhibition in test [1] (IC50) required 8.9 µM.
On the same count and under the same terms, in the case of `CC(=O)NCc1ccc(-c2nn(C)c3ccccc23)o1` it was 13.4 µM.
The same measure, in the same setting: in the case of `OCc1cc(-c2nn(Cc3ccccc3)c3ccccc23)on1` it was 23.9 µM; in that of `OCc1cnc(-c2nn(Cc3ccccc3)c3ccccc23)o1`, more than 30 µM.
Same read-out and setting: then `Cn1nc(-c2nc(CO)co2)c2ccccc21`, with more than 30 µM; and `OCc1coc(-c2nn(Cc3ccccc3)c3ccccc23)n1`, with more than 30 µM; and `O=S(=O)(c1ccccc1)n1nc(-c2ccc(CO)o2)c2ccccc21`, with 1.3 µM.
`CC(=O)OCc1ccc(-c2nn(Cc3ccccc3)c3ccccc23)o1` gave an IC50 in test [1] of 2.3 µM.
Still for that read-out and setting: in the case of `Cn1nc(-c2ncc(CO)s2)c2ccccc21` it was more than 30 µM; in that of `CN(C)Cc1ccc(-c2nn(C)c3ccccc23)o1`, 8.5 µM; in that of `COC(=O)c1ccc(-c2nn(Cc3ccccc3)c3ccccc23)o1`, 0.9 µM.
In test [1], `CC(=O)OCc1ccc(-c2nn(C)c3ccccc23)o1` gave an IC50 of 16.9 µM. Compared with the last compound, the IC50 is about 19-fold higher.

These data come from ChEMBL document CHEMBL1926629, “Design, synthesis and insight into the structure-activity relationship of 1,3-disubstituted indazoles as novel HIF-1 inhibitors” (Bioorg Med Chem Lett, 2011).
